Assay: molar heat capacity at constant volume
Details: Fluid (supercritical or subcritical phases), Vacuum adiabatic calorimetry

CCC(C)O (stereo unspecified) [butan-2-ol]
Details | molar heat capacity at constant volume [J/K/mol]
513.55 K, Mass density=474.07 kg/m3 | 293.52
513.74 K, Mass density=95.93 kg/m3 | 641.3
513.74 K, Mass density=474.07 kg/m3 | 293.52
513.92 K, Mass density=95.93 kg/m3 | 638.11
513.92 K, Mass density=474.07 kg/m3 | 295
514.11 K, Mass density=95.93 kg/m3 | 635.74
514.11 K, Mass density=474.07 kg/m3 | 289.82
514.3 K, Mass density=95.93 kg/m3 | 627.59
514.3 K, Mass density=474.07 kg/m3 | 283.14
514.48 K, Mass density=95.93 kg/m3 | 308.72
514.48 K, Mass density=474.07 kg/m3 | 295.75
514.67 K, Mass density=95.93 kg/m3 | 252.53
514.67 K, Mass density=474.07 kg/m3 | 285.37
514.86 K, Mass density=95.93 kg/m3 | 246.31
514.86 K, Mass density=474.07 kg/m3 | 291.3
515.04 K, Mass density=95.93 kg/m3 | 265.58
515.04 K, Mass density=474.07 kg/m3 | 286.85
515.23 K, Mass density=95.93 kg/m3 | 271.43
515.23 K, Mass density=474.07 kg/m3 | 240.9
515.42 K, Mass density=95.93 kg/m3 | 276.47
515.42 K, Mass density=474.07 kg/m3 | 230.52
515.6 K, Mass density=474.07 kg/m3 | 230.52
515.79 K, Mass density=95.93 kg/m3 | 198.72
515.79 K, Mass density=474.07 kg/m3 | 229.04
515.98 K, Mass density=95.93 kg/m3 | 206.28
515.98 K, Mass density=474.07 kg/m3 | 232.74
516.16 K, Mass density=95.93 kg/m3 | 200.65
516.35 K, Mass density=95.93 kg/m3 | 215.69
516.53 K, Mass density=95.93 kg/m3 | 229.41
516.53 K, Mass density=403.55 kg/m3 | 311.31
516.53 K, Mass density=474.07 kg/m3 | 220.14
516.72 K, Mass density=95.93 kg/m3 | 228.07
516.72 K, Mass density=403.55 kg/m3 | 309.83
516.72 K, Mass density=474.07 kg/m3 | 223.11
516.91 K, Mass density=95.93 kg/m3 | 243.71
516.91 K, Mass density=403.55 kg/m3 | 312.79
516.91 K, Mass density=474.07 kg/m3 | 221.62
516.91 K, Mass density=538.17 kg/m3 | 212.88
517.09 K, Mass density=95.93 kg/m3 | 203.61
517.09 K, Mass density=403.55 kg/m3 | 309.09
517.09 K, Mass density=474.07 kg/m3 | 222.36
517.09 K, Mass density=538.17 kg/m3 | 213.84
517.28 K, Mass density=95.93 kg/m3 | 224.96
517.28 K, Mass density=403.55 kg/m3 | 310.57
517.28 K, Mass density=538.17 kg/m3 | 214.06
517.47 K, Mass density=403.55 kg/m3 | 313.53
517.65 K, Mass density=403.55 kg/m3 | 309.09
520.44 K, Mass density=117 kg/m3 | 740.77
520.63 K, Mass density=117 kg/m3 | 732.54
520.81 K, Mass density=117 kg/m3 | 737.95
521 K, Mass density=117 kg/m3 | 726.1
521.18 K, Mass density=117 kg/m3 | 734.77
521.37 K, Mass density=117 kg/m3 | 723.58
521.55 K, Mass density=117 kg/m3 | 728.69
521.74 K, Mass density=117 kg/m3 | 715.2
521.74 K, Mass density=142.27 kg/m3 | 509.66
521.92 K, Mass density=117 kg/m3 | 709.42
521.92 K, Mass density=142.27 kg/m3 | 517.74
522.11 K, Mass density=117 kg/m3 | 639
522.11 K, Mass density=142.27 kg/m3 | 522.71
522.13 K, Mass density=117 kg/m3 | 606.09
522.15 K, Mass density=117 kg/m3 | 603.42
522.16 K, Mass density=117 kg/m3 | 599.35
522.18 K, Mass density=117 kg/m3 | 590.9
522.2 K, Mass density=117 kg/m3 | 590.9
522.22 K, Mass density=117 kg/m3 | 505.14
522.24 K, Mass density=117 kg/m3 | 408.41
522.26 K, Mass density=117 kg/m3 | 318.13
522.28 K, Mass density=117 kg/m3 | 304.49
522.3 K, Mass density=117 kg/m3 | 309.61
522.3 K, Mass density=142.27 kg/m3 | 521.45
522.31 K, Mass density=117 kg/m3 | 308.86
522.33 K, Mass density=117 kg/m3 | 298.12
522.35 K, Mass density=117 kg/m3 | 289.44
522.37 K, Mass density=117 kg/m3 | 280.77
522.39 K, Mass density=117 kg/m3 | 260.54
522.4 K, Mass density=117 kg/m3 | 247.05
522.42 K, Mass density=117 kg/m3 | 241.56
522.44 K, Mass density=117 kg/m3 | 241.56
522.46 K, Mass density=117 kg/m3 | 222.29
522.48 K, Mass density=117 kg/m3 | 221.62
522.48 K, Mass density=142.27 kg/m3 | 530.71
522.67 K, Mass density=117 kg/m3 | 241.78
522.67 K, Mass density=142.27 kg/m3 | 535.45
522.85 K, Mass density=117 kg/m3 | 245.27
522.85 K, Mass density=142.27 kg/m3 | 540.12
523.04 K, Mass density=117 kg/m3 | 242.75
523.04 K, Mass density=142.27 kg/m3 | 544.87
523.22 K, Mass density=117 kg/m3 | 224.14
523.22 K, Mass density=142.27 kg/m3 | 528.41
523.41 K, Mass density=117 kg/m3 | 213.62
523.41 K, Mass density=142.27 kg/m3 | 530.64
523.59 K, Mass density=142.27 kg/m3 | 531.67
523.78 K, Mass density=142.27 kg/m3 | 532.34
524.33 K, Mass density=142.27 kg/m3 | 531.23
524.52 K, Mass density=142.27 kg/m3 | 529.97
524.7 K, Mass density=142.27 kg/m3 | 534.05
524.89 K, Mass density=142.27 kg/m3 | 531.45
525.07 K, Mass density=142.27 kg/m3 | 529.6
525.26 K, Mass density=142.27 kg/m3 | 530.41
525.44 K, Mass density=142.27 kg/m3 | 530.93
525.63 K, Mass density=142.27 kg/m3 | 531.82
525.81 K, Mass density=142.27 kg/m3 | 537.01
525.99 K, Mass density=142.27 kg/m3 | 538.94
527.1 K, Mass density=142.27 kg/m3 | 532.93
527.29 K, Mass density=142.27 kg/m3 | 536.64

Source: the NIST ThermoML archive (doi:10.1016/j.tca.2013.08.031)
